Reference: paper PMC6384891, “An automated microliter-scale high-throughput screening system (MSHTS) for real-time monitoring of protein aggregation using quantum-dot nanoprobes” (Scientific Reports, 2019)
Read-outs that look alike come from different tables or passages of the source.

Experiments:
Type in all cases: biochemical
Aβ42 [1] = target: T1, Aβ42 (Homo sapiens, UniProt P05067); test: manual MSHTS system, Aβ aggregation inhibition
T1 construct: Human Aβ42 (4349-v, Peptide Institute); purchased Peptide Institute 4349-v
Description: The automated MSHTS system used was based on the method described in the Supplementary Methods. In this study, EC50 values of the plant crude extract library and the compound library were measured by the automated MSHTS system and the manual MSHTS system[19],[20], respectively. All fluorescence micrograph images were taken using a 4x objective in the MSHTS systems. […]
concentrations of RA were incubated with 30 µM A β and 30 nM QD 655-labeled Aβ or QD605-labeled Aβ in a 1536-well plate according to our previous reports1,5. Fluorescence micrographs […]
presence of 600 and 120 µM RA.
(1 picture or pasted object on this page, not shown here) […]
(§1) QDAβ were incubated with various concentrations of chaperones i n a 1536-well plate for 24 h at 37 ° C and observed by fluorescence microscopy. C, E, and P indicate CRT , ERp57, and PDI, respectively. EC50 and the SD values were determined from the micrographs of three independent

Aβ = target: T2, Aβ (Homo sapiens, UniProt P05067); test: ThT assay of Aβ aggregation
T2 construct: Human Aβ42 (4349-v, Peptide Institute); purchased Peptide Institute 4349-v
Description: The ThT assay was conducted according to the method of Levine[10] modified in our laboratory.

Aβ42 [2] = target: T1, Aβ42; test: automated MSHTS system, Aβ aggregation inhibition imaged with QDAβ nanoprobe
Description: An outline of the automated MSHTS system developed in this study is as follows (Fig. 1e). First, sample solutions, such as natural extracts and/or chemical compounds, were diluted stepwise in a 384-well plate. The diluted samples in this plate were injected into a 1536-well plate at 2.5 µl per well (Supplementary Fig. S6a). […] The 1536-well plate was sealed, and each well was imaged by a fluorescence microscope system. After incubation to induce aggregation for 24 h at 37 °C, each well was imaged by a fluorescence microscope system. The images were analyzed to determine the SD values of fluorescence intensity of each pixel. The half-maximal effective concentration (EC50) was estimated from the SD values according to our previous method.
The automated MSHTS system used was based on the method described in the Supplementary Methods. In this study, EC50 values of the plant crude extract library and the compound library were measured by the automated MSHTS system and the manual MSHTS system[19],[20], respectively. All fluorescence micrograph images were taken using a 4x objective in the MSHTS systems.
Automated MSHTS system–sample preparation and mixing with Aβ
Sample preparation was carried out using Automated Workstation JANUS G3 (Perkin Elmer).
To make a dilution series of samples, dilution buffer (10%EtOH, 1×PBS) was aspirated ( asp. speed:
20 µl/s) using a conductive chip that can detect liquid level and injected (dsp. height: 0.75 mm, dsp. speed: 10 µl/s) into each well of a 384-well plate (384 Hard-shell micro plate HSP3951, BIO-RAD) without wells for injecting stoc k sample solution. Stock sample solutions were prepared, and were injected manually into the vacant wells of the 384-well plate. As a control without any inhibitor, dilution buffer alone was injected into the well instead of stock sample solution. The stock sample solution or control solution was aspirated (asp. height: 2 mm, asp. speed: 10 µl/s), injected (dsp. height: 4 mm, dsp. speed: 10 µl/s) into the next well containing the dilution buffer, and mixed by pipetting (asp. height: 2 mm, dsp. height: 4 m m , mix speed: 25 µl/s, mix cycles: 5). This dilution st ep was repeated five times, so that si x dilution series were prepared for each sample. The diluted samples in the 384-well plate were aspirated using a 384-chip head (asp. height: 1 mm, asp. speed:
3 µl/s) and injected (quadruplicate) (dsp. height: 1 mm, dsp. speed: 10 µl/s) into a 1536-well plate (1536 well FIA black plate, Greiner Bio-One) at 2.5 µl per well. […]
After centrifugation in a multi-well plate centrifuge, the 1536-well plate was observed by an inverted fluorescence microscope system (ECLIPSE Ti-E, Nikon) equipped with a color CCD camer a (DS-Ri2, Nikon). […]

tau MBD fragment = target: T3, tau MBD fragment (Mus musculus, UniProt P10637); test: MSHTS system, tau aggregation inhibition with QDTau nanoprobe; details: 10 µM tau, 50 nM QDTau, 10 µM heparin, 10 mM DTT, 24 h at 37 °C
T3 construct: added N-terminal methionine (from NdeI site) (N); made in house; host or cells: E. coli Rosetta (DE3) pLys, pET-21a(+)
From the text: In this study, we used the microtubule-binding domain (MBD) fragment of 4-repeat tau (Fig. 4a) to image tau aggregation. First, we examined the aggregated condition of tau in the presence of heparin, which formed paired helical-like filaments under physiological conditions in vitro, according to early reports[24],[25]. […] Since 4-repeat tau contains two Cys residues (C222 and C253), it may be necessary for aggregation to occur, to inhibit intramolecular disulfide crosslinking, as was reported in a previous report. […] When 10 μM tau was incubated in the presence of 10 mM DTT, the SD value reached a maximum (Supplementary Fig. S10c,d), so we decided to observe aggregation using 10 μM tau. […] We compared tau and Aβ aggregates by TEM observation. The morphology of tau and Aβ fibrils was difficult to distinguish (Fig. 4b). […] We also confirmed by TEM observation that the aggregation of tau and Aβ contained QD nanoprobes (Fig. 4d). These aggregations were directly observed by confocal microscopy in real time (Fig. 4e). […] The imaging method using a QD nanoprobe without a drying step as in TEM observation may be suitable for detailed observation of aggregate shapes in solution.
Supplementary Fig. S11 Inhibition of tau aggregation by RA (a) and spearmint extract (b). 10 µM tau, 50 nM QDTau, 10 µM heparin, 10 mM DTT were incubated with various concentrations of RA […]
for 24 h at 37 ° C and observed by fluorescence microscopy. EC50 and the SD values were determined from the micrographs of three independent wells.
(1 picture or pasted object on this page, not shown here)
as §1, with “Supplementary Fig. S12 Inhibition of tau and Aβ aggregation by chaperones. 10 µM tau, 50 nM QDTau, 10 µM heparin, 10 mM DTT were incubated with various concentrations of chaperon es in a 1536-well plate for 24 h at 37 °C and observed by fluorescence microscopy. 30 µM Aβ , 30 nM QDAβ” for “QDAβ”

[3] = compound library, Aβ aggregation, read-out: EC50 by MSHTS system (MA), Fig. 3
[4] = 2nd screening, tropolone derivatives, read-out: EC50 [µM] by MSHTS system, Supplementary Table S3 (converted)
[5] = tropolone derivatives, read-out: ThT [µM], EC50, Supplementary Table S4 (converted)
[6] = 1st screening, read-out: EC50 [µM] by MSHTS system, Supplementary Table S2 (converted)
[7] = screening of compound library by MSHTS
[8] = Aβ aggregation, read-out: EC50 by ThT assay (TA), Fig. 3
[9] = 30 µM Aβ, 30 nM QDAβ, 24 h at 37 °C, read-out: EC50 (μM) Aβ

T3 sequence (P10637 with tags, fused parts or gaps isoform P10637-5 limits assumed): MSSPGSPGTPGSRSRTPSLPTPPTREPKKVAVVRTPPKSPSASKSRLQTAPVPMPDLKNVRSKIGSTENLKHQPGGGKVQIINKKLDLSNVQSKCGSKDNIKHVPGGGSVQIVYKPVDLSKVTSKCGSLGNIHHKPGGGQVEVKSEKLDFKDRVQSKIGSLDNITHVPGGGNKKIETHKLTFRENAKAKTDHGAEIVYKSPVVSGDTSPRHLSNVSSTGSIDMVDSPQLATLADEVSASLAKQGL
T2 sequence (P05067 672-713 limits assumed): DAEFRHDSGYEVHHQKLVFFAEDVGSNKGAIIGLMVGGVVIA
T1 sequence (P05067 672-713 limits assumed): as above

Molecule: O=c1ccc(/N=N/c2ccc([N+](=O)[O-])cc2)ccc1O [TR-001]
- EC50 (Aβ42 [1]; [3]): 258 µM

Molecule: O=c1ccc(/N=N/c2cccc([N+](=O)[O-])c2)ccc1O [TR-002]
- EC50 (Aβ42 [1]; [4]): 232 µM

Molecule: O=c1ccc(-c2cccc([N+](=O)[O-])c2)ccc1O [MO-006]
- EC50 (Aβ; [5]): 75 µM

Molecule: Oc1cc2ccccc2cc1O [MO-038]
- EC50 (Aβ42 [1]; [6]): 31.4 µM
- Aβ aggregation inhibitory activity (in words) (Aβ42 [1]; [7]): active

Molecule: O=Nc1ccc(O)c(=O)cc1 [MO-020]
- EC50 (Aβ42 [1]; [3]): 154 ± 23 µM
- Aβ aggregation inhibitory activity (in words) (Aβ42 [1]; [7]): active
- EC50 (Aβ; [8]): 152 ± 15 µM

Molecule: COc1ccc(-c2ccc([N+](=O)[O-])cc2)ccc1=O [MO-011]
- EC50 (Aβ42 [1]; [3]): 200 ± 66 µM
- Aβ aggregation inhibitory activity (in words) (Aβ42 [1]; [7]): active

Molecule: O=c1ccc(-c2ccc([N+](=O)[O-])cc2)ccc1O [MO-010]
- EC50 (Aβ42 [1]; [6]): 52.5 µM
- Aβ aggregation inhibitory activity (in words) (Aβ42 [1]; [7]): active
- EC50 (Aβ; [8]): 144 ± 29 µM

Molecule: N#Cc1ccc(/N=N/c2ccc(O)c(=O)cc2)cc1C(F)(F)F [TR-007]
- EC50 (Aβ42 [1]; [4]): 13.9 µM
- EC50 (Aβ; [8]): 4.86 ± 0.9 µM

Molecule: CN(C)c1ccc(B(O)O)cc1 [MO-074]
- EC50 (Aβ42 [1]; [6]): 53.1 µM
- Aβ aggregation inhibitory activity (in words) (Aβ42 [1]; [7]): active

Molecule: O=C(/C=C/c1ccc(O)c(O)c1)O[C@H](Cc1ccc(O)c(O)c1)C(=O)O [RA, rosmarinic acid]
- EC50 (Aβ42 [2]; 25 µM Aβ, 25 nM QDAβ, 1536-well plate, 24 h at 37 °C, average of 61 sets, read-out: EC50 of Aβ aggregation inhibition, positive control): 26.9 ± 4.57 µM
- Aβ aggregation inhibition at 120 µM, mixed by pipetting 10 times (Aβ42 [2]; 120 µM, pipetting 10 times): did not inhibit
- Aβ aggregation inhibition at 120 µM, mixed by pipetting three or five times (Aβ42 [2]; 120 µM, pipetting three or five times): inhibited
- Aβ aggregation at 300 and 60 µM (Aβ42 [2]; 300 and 60 µM, 25 µM Aβ, 24 h at 37 °C): inhibited
- Aβ aggregation at 600 and 120 µM (Aβ42 [1]; 600 and 120 µM, 30 µM Aβ, 30 nM QD655- or QD605-labeled Aβ): inhibited
- EC50 of tau aggregation inhibition (in words) (tau MBD fragment): could not be determined

Molecule: Nc1ccc(O)c(=O)cc1 [MO-009]
- EC50 (Aβ42 [1]; [6]): 19.1 µM
- Aβ aggregation inhibitory activity (in words) (Aβ42 [1]; [7]): active
- EC50 (Aβ; [5]): 87.6 µM

Molecule: O=c1cccccc1O [MO-073]
- EC50 (Aβ; [8]): 1610 µM

Molecule: O=C1C=CC(=O)C=C1 [MO-100]
- Aβ aggregation inhibitory activity (in words) (Aβ42 [1]): active
- EC50 (Aβ42 [1]): 56 µM

Molecule: Protein disulfide isomerase [PDI]
- EC50 (Aβ42 [1]; [9]): 1 ± 0.206 µM
- EC50 (tau MBD fragment): 12.7 ± 4.6 µM

Molecule: N#Cc1cccc(/N=N/c2ccc(O)c(=O)cc2)c1 [TR-027]
- EC50 (Aβ42 [1]; [4]): 38.7 µM
- EC50 (Aβ; [5]): 83 µM

Molecule: O=c1ccc(/N=N/c2cc(C(F)(F)F)cc(C(F)(F)F)c2)ccc1O [TR-004]
- Aβ aggregation inhibitory activity (in words) (Aβ42 [1]; [7]): no activity

Molecule: O=c1ccc(/N=N/c2cc([N+](=O)[O-])cc([N+](=O)[O-])c2)ccc1O [TR-003]
- EC50 (Aβ42 [1]; tropolone derivatives, read-out: MSHTS [µM], EC50, Supplementary Table S4): 6.6 µM
- EC50 (Aβ; [5]): 18.4 µM

Molecule: COc1ccc(-c2cccc([N+](=O)[O-])c2)ccc1=O [MO-007]
- EC50 (Aβ42 [1]; [3]): 144 ± 62 µM
- Aβ aggregation inhibitory activity (in words) (Aβ42 [1]; [7]): active

B1: ERp57: chaperone (protein, UniProt P30101 25-505, looked up)
Protein disulfide-isomerase A3: SDVLELTDDNFESRISDTGSAGLMLVEFFAPWCGHCKRLAPEYEAAATRLKGIVPLAKVDCTANTNTCNKYGVSGYPTLKIFRDGEEAGAYDGPRTADGIVSHLKKQAGPASVPLRTEEEFKKFISDKDASIVGFFDDSFSEAHSEFLKAASNLRDNYRFAHTNVESLVNEYDDNGEGIILFRPSHLTNKFEDKTVAYTEQKMTSGKIKKFIQENIFGICPHMTEDNKDLIQGKDLLIAYYDVDYEKNAKGSNYWRNRVMMVAKKFLDAGHKLNFAVASRKTFSHELSDFGLESTAGEIPVVAIRTAKGEKFVMQEEFSRDGKALERFLQDYFDGNLKRYLKSEPIPESNDGPVKVVVAENFDEIVNNENKDVLIEFYAPWCGHCKNLEPKYKELGEKLSKDPNIVIAKMDATANDVPSPYEVRGFPTIYFSPANKKLNPKKYEGGRELSDFISYLQREATNPPVIQEEKPKKKKKAQEDL
- EC50 (Aβ42 [1]; [9]): 0.321 ± 0.073 µM
- EC50 (tau MBD fragment): 4.79 ± 1.19 µM

B2: calreticulin (protein, UniProt P27797 18-417, looked up)
Calreticulin: EPAVYFKEQFLDGDGWTSRWIESKHKSDFGKFVLSSGKFYGDEEKDKGLQTSQDARFYALSASFEPFSNKGQTLVVQFTVKHEQNIDCGGGYVKLFPNSLDQTDMHGDSEYNIMFGPDICGPGTKKVHVIFNYKGKNVLINKDIRCKDDEFTHLYTLIVRPDNTYEVKIDNSQVESGSLEDDWDFLPPKKIKDPDASKPEDWDERAKIDDPTDSKPEDWDKPEHIPDPDAKKPEDWDEEMDGEWEPPVIQNPEYKGEWKPRQIDNPDYKGTWIHPEIDNPEYSPDPSIYAYDNFGVLGLDLWQVKSGTIFDNFLITNDEAYAEEFGNETWGVTKAAEKQMKDKQDEEQRLKEEEEDKKRKEEEEAEDKEDDEDKDEDEEDEEDKEEDEEEDVPGQAKDEL
notes: chaperone
- EC50 (Aβ42 [1]; [9]): 0.191 ± 0.04 µM
- EC50 (tau MBD fragment): 0.843 ± 0.047 µM
